The source of these data is patent publication US9802960B2 (MILLENNIUM PHARMACEUTICALS, INC., priority 2014, dated 2017).

Some results are limits rather than exact numbers.

What is called IC50 is the concentration needed to halve the response being measured. Read a high IC50 as a need for much substance. By inhibition is commonly meant the share of the control response that was lost under treatment.

One assay deals with Human VPS34 (Homo sapiens (Human), UniProt Q8NEB9). In words: Human VPS34 enzyme assay (Adapta TR-FRET). The settings on record: IC50 range class. It is filed as biochemical. For orientation: TR-FRET usually uses a lanthanide donor and a delayed reading to cut background.
Sequence of Human VPS34 (Q8NEB9 whole entry): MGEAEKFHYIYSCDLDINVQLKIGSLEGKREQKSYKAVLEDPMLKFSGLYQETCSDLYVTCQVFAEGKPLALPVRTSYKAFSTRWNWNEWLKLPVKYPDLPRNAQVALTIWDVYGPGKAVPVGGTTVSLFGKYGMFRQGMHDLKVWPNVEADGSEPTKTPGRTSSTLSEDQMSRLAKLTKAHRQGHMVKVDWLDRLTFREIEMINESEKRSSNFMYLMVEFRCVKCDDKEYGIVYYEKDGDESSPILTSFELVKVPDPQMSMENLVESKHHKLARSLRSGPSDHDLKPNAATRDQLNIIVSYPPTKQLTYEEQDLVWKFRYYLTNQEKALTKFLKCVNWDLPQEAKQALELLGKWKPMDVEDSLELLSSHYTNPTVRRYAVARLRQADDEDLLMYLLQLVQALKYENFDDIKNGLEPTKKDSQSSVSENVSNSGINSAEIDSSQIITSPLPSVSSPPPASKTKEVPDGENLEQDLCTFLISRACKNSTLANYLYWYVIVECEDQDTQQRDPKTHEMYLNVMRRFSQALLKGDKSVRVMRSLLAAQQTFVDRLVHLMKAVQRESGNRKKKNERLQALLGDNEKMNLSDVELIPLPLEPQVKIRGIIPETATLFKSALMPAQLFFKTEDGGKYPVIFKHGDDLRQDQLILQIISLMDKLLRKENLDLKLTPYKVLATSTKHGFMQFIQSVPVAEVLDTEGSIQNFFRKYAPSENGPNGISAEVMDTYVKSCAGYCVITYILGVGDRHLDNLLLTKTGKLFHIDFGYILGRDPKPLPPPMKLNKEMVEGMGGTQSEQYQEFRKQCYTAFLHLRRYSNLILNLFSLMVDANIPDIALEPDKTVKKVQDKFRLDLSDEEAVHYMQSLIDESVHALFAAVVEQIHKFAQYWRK
For the compound `Cc1nccc(Nc2cc(-c3cnc(C)c(NS(=O)(=O)c4ccc(F)cc4F)c3)ccn2)n1` [Compound I-291, 2,4-difluoro-N-{6-methyl-2′-[(2-methylpyrimidin-4-yl)amino]-3,4′-bipyridin-5-yl}benzenesulfonamide], the IC50 was under 10 nM.

Staying with this assay, now noted: compound concentration 1.11 μM; read-out: Percent Inhibition.
For the compound `Cc1nccc(Nc2cc(-c3cnc(C)c(NS(=O)(=O)c4ccc(F)cc4F)c3)ccn2)n1` [Compound I-291, 2,4-difluoro-N-{6-methyl-2′-[(2-methylpyrimidin-4-yl)amino]-3,4′-bipyridin-5-yl}benzenesulfonamide], the inhibition at 1.11 µM is 95%.

On to `Cc1ncc(-c2ccnc(Nc3ccnc(C(F)(F)F)n3)c2)cc1C(=O)N1CCC1` [Compound I-292, azetidin-1-yl(6-methyl-2′-{[2-(trifluoromethyl)pyrimidin-4-yl]amino}-3,4′-bipyridin-5-yl)methanone], for which the inhibition at 1.11 µM came out at 99%.

Turning to `Cc1ccnc(Nc2cc(-c3cnc(Cl)c(NS(=O)(=O)c4ccc(F)cc4F)c3C)ccn2)n1` [Compound I-293, N-{6-chloro-4-methyl-2′-[(4-methylpyrimidin-2-yl)amino]-3,4′-bipyridin-5-yl}-2,4-difluorobenzene sulfonamide], the inhibition at 1.11 µM is over 99%.

As for `Cc1nccc(Nc2cc(-c3cnc(Cl)c(NS(=O)(=O)c4ccc(F)cc4F)c3C)c(F)cn2)n1` [Compound I-294, N-{6-chloro-5′-fluoro-4-methyl-2′-[(2-methylpyrimidin-4-yl)amino]-3,4′-bipyridin-5-yl}-2,4-difluorobenzenesulfonamide], the inhibition at 1.11 µM was 94%.

For `Cc1nccc(Nc2cc(-c3cnc(Cl)c(NC(=O)c4ccc(F)cc4F)c3C)ccn2)n1` [Compound I-295, N-{6-chloro-4-methyl-2′-[(2-methylpyrimidin-4-yl)amino]-3,4′-bipyridin-5-yl}-2,4-difluorobenzamide], the inhibition at 1.11 µM worked out at 80%.

`Cc1c(-c2ccnc(Nc3ccnc(C4CC4)n3)c2)cnc(Cl)c1NS(=O)(=O)c1ccc(F)cc1F` [Compound I-296, N-{6-chloro-2′-[(2-cyclopropylpyrimidin-4-yl)amino]-4-methyl-3,4′-bipyridin-5-yl}-2,4-difluorobenzene sulfonamide]: the inhibition at 1.11 µM is 90%.

On to `Cc1ncc(-c2ccnc(Nc3ccccn3)c2)cc1NS(=O)(=O)c1ccc(F)cc1F` [Compound I-297, 2,4-difluoro-N-[6-methyl-2′-(pyridin-2-ylamino)-3,4′-bipyridin-5-yl]benzenesulfonamide], for which the inhibition at 1.11 µM was over 99%.

`Nc1ncc(-c2ccnc(Nc3ccncn3)c2)cc1C(=O)NC12CC(C1)C2` [Compound I-298, 6-amino-N-(bicyclo[1.1.1]pent-1-yl)-2′-(pyrimidin-4-ylamino)-3,4′-bipyridine-5-carboxamide]: the inhibition at 1.11 µM was found to be 99%.

For `Cc1nccc(Nc2cc(-c3cnc(Cl)c(NS(=O)(=O)c4ccc(F)cc4F)c3C)ccn2)n1` [Compound I-299, N-{6-chloro-4-methyl-2′-[(2-methylpyrimidin-4-yl)amino]-3,4′-bipyridin-5-yl}-2,4-difluorobenzenesulfonamide], the inhibition at 1.11 µM amounted to 98%.

Consider `Cc1c(-c2ccnc(Nc3ncc(C#N)cn3)c2)cnc(Cl)c1NS(=O)(=O)c1ccc(F)cc1F` [Compound I-300, N-{6-chloro-2′-[(5-cyanopyrimidin-2-yl)amino]-4-methyl-3,4′-bipyridin-5-yl}-2,4-difluorobenzene sulfonamide], for which the inhibition at 1.11 µM came to 96%.

As for `Cc1ncc(-c2ccnc(Nc3ccn(C)n3)c2)cc1NS(=O)(=O)c1ccc(F)cc1F` [Compound I-301, 2,4-difluoro-N-{6-methyl-2′-[(1-methyl-1H-pyrazol-3-yl)amino]-3,4′-bipyridin-5-yl}benzenesulfonamide], the inhibition at 1.11 µM was 96%.

Take `CCN(CC)C(=O)c1cc(-c2ccnc(Nc3ccnc(C)n3)c2)cnc1C` [Compound I-302, N,N-diethyl-6-methyl-2′-[(2-methylpyrimidin-4-yl)amino]-3,4′-bipyridine-5-carboxamide]: the inhibition at 1.11 µM worked out at 83%.

In the case of `CN(C(=O)c1cc(-c2ccnc(Nc3ccncn3)c2)cnc1N)C12CC(C1)C2` [Compound I-303, 6-amino-N-(bicyclo[1.1.1]pent-1-yl)-N-methyl-2′-(pyrimidin-4-ylamino)-3,4′-bipyridine-5-carboxamide], the inhibition at 1.11 µM was determined as 95%.

Consider `Cc1nccc(Nc2cc(-c3cnc(C)c(C(=O)N4CCC4)c3)ccn2)n1` [Compound I-304, Azetidin-1-yl(6-methyl-2′-((2-methylpyrimidin-4-yl)amino)-3,4′-bipyridin-5-yl)methanone], for which the inhibition at 1.11 µM is 96%.

Consider `Cc1ncc(-c2ccnc(NC(=O)C3CCC3)c2)cc1NS(=O)(=O)c1ccc(F)cc1F` [Compound I-305, N-(5-{[(2,4-difluorophenyl)sulfonyl]amino}-6-methyl-3,4′-bipyridin-2′-yl)cyclobutanecarboxamide], for which the inhibition at 1.11 µM amounted to 94%.

With `Cc1nccc(Nc2cc(-c3cnc(N(C)C)c(C(=O)N(C)C45CC(C4)C5)c3)ccn2)n1` [Compound I-306, N-(bicyclo[1.1.1]pent-1-yl)-6-(dimethylamino)-N-methyl-2′-((2-methylpyrimidin-4-yl)amino)-3,4′-bipyridine-5-carboxamide], the inhibition at 1.11 µM is over 99%.

Turning to `Cc1ccc(Nc2cc(-c3cnc(C)c(NS(=O)(=O)c4ccc(F)cc4F)c3)ccn2)nn1` [Compound I-307, 2,4-difluoro-N-{6-methyl-2′-[(6-methylpyridazin-3-yl)amino]-3,4′-bipyridin-5-yl}benzenesulfonamide], the inhibition at 1.11 µM is over 99%.

In the case of `Cc1c(-c2ccnc(Nc3ccncn3)c2)cnc(Cl)c1NS(=O)(=O)c1ccccc1` [Compound I-309, N-[6-chloro-4-methyl-2′-(pyrimidin-4-ylamino)-3,4′-bipyridin-5-yl]benzenesulfonamide], the inhibition at 1.11 µM amounted to 99%.

`Cc1ncc(-c2ccnc(Nc3cnccn3)c2)cc1NS(=O)(=O)c1ccc(F)cc1F` [Compound I-310, 2,4-difluoro-N-[6-methyl-2′-(pyrazin-2-ylamino)-3,4′-bipyridin-5-yl]benzenesulfonamide]: the inhibition at 1.11 µM was over 99%.

On to `Cc1ncc(-c2ccnc(NC(=O)C3CC3)c2)cc1NS(=O)(=O)N(C)C` [Compound I-311, N-{5-[(dimethylsulfamoyl)amino]-6-methyl-3,4′-bipyridin-2′-yl}cyclopropanecarboxamide], for which the inhibition at 1.11 µM is over 99%.

For the compound `CC(=O)Nc1cc(-c2cnc(Cl)c(NS(=O)(=O)c3ccccc3)c2C)ccn1` [Compound I-312, N-{6-chloro-4-methyl-5-[(phenylsulfonyl)amino]-3,4′-bipyridin-2′-yl}acetamide], the inhibition at 1.11 µM was over 99%.

In the case of `Cc1ncc(-c2ccnc(NC(=O)N3CCCC3)c2)cc1NS(=O)(=O)c1ccc(F)cc1F` [Compound I-313, N-(5-{[(2,4-difluorophenyl)sulfonyl]amino}-6-methyl-3,4′-bipyridin-2′-yl)pyrrolidine-1-carboxamide], the inhibition at 1.11 µM came out at 88%.

Regarding `Cc1nccc(Nc2cc(-c3cnc(Cl)c(N(C)C)c3C)ccn2)n1` [Compound I-314, 6-chloro-N5,N5,4-trimethyl-N2′-(2-methylpyrimidin-4-yl)-3,4′-bipyridine-2′,5-diamine], the inhibition at 1.11 µM stood at 91%.

As for `Cc1nccc(Nc2cc(-c3cnc(C)c(C(=O)N4CCCC4)c3)ccn2)n1` [Compound I-315, {6-methyl-2′-[(2-methylpyrimidin-4-yl)amino]-3,4′-bipyridin-5-yl}(pyrrolidin-1-yl)methanone], the inhibition at 1.11 µM came out at 92%.

With `CC(=O)Nc1cc(-c2cncc(S(=O)(=O)NC3C4CC5CC(C4)CC3C5)c2)ccn1` (centres unmarked) [Compound I-318, N-[5-(adamantan-2-ylsulfamoyl)-3,4′-bipyridin-2′-yl]acetamide], the inhibition at 1.11 µM was 97%.

Consider `CC(=O)Nc1cc(-c2cnc(C)c(N(CCO)S(=O)(=O)c3ccc(F)cc3F)c2)ccn1` [Compound I-319, N-(5-{[(2,4-difluorophenyl)sulfonyl](2-hydroxyethyl)amino}-6-methyl-3,4′-bipyridin-2′-yl)acetamide], for which the inhibition at 1.11 µM is 94%.

Regarding `CC(=O)Nc1cc(-c2cncc(N3CCCCS3(=O)=O)c2)ccn1` [Compound I-320, N-[5-(1,1-dioxido-1,2-thiazinan-2-yl)-3,4′-bipyridin-2′-yl]acetamide], the inhibition at 1.11 µM turned out to be 95%.

For `CC(=O)Nc1cc(-c2cncc(S(=O)(=O)NCc3ccccc3)c2)ccn1` [Compound I-321, N-[5-(benzylsulfamoyl)-3,4′-bipyridin-2′-yl]acetamide], the inhibition at 1.11 µM was over 99%.

As for `CC(=O)Nc1cc(-c2cnc(C)c(NS(=O)(=O)c3cccc(F)c3Cl)c2)ccn1` [Compound I-322, N-(5-{[(2-chloro-3-fluorophenyl)sulfonyl]amino}-6-methyl-3,4′-bipyridin-2′-yl)acetamide], the inhibition at 1.11 µM is 96%.

`CC(=O)Nc1cc(-c2cnc(N)c(N3CCCN(C)S3(=O)=O)c2)ccn1` [Compound I-323, N-[6-amino-5-(6-methyl-1,1-dioxido-1,2,6-thiadiazinan-2-yl)-3,4′-bipyridin-2′-yl]acetamide]: the inhibition at 1.11 µM is 73%.

With `Cc1ncc(-c2ccnc(NC(=O)OCC3(C)COC3)c2)cc1NS(=O)(=O)c1ccc(F)cc1F` [Compound I-324, (3-methyloxetan-3-yl)methyl (5-{[(2,4-difluorophenyl)sulfonyl]amino}-6-methyl-3,4′-bipyridin-2′-yl)carbamate], the inhibition at 1.11 µM was over 99%.

As to `CNC1CN(c2cc(-c3ccnc(NC(C)=O)c3)cnc2C)S(=O)(=O)C1` (centres unmarked) [Compound I-325, N-{6-methyl-5-[4-(methylamino)-1,1-dioxidoisothiazolidin-2-yl]-3,4′-bipyridin-2′-yl}acetamide], the inhibition at 1.11 µM was over 99%.

As to `Cc1ncc(-c2ccnc(NC(=O)OCc3ccn(C)n3)c2)cc1NS(=O)(=O)c1ccc(F)cc1F` [Compound I-326, (1-methyl-1H-pyrazol-3-yl)methyl (5-{[(2,4-difluorophenyl)sulfonyl]amino}-6-methyl-3,4′-bipyridin-2′-yl)carbamate], the inhibition at 1.11 µM stood at 96%.

As to `COc1ncc(-c2ccnc(NC(C)=O)c2)cc1S(=O)(=O)Nc1cccc(C(F)(F)F)c1` [Compound I-329, N-(6-methoxy-5-{[3-(trifluoromethyl)phenyl]sulfamoyl}-3,4′-bipyridin-2′-yl)acetamide], the inhibition at 1.11 µM is over 99%.
